From patent US20120238767A1, “ANTIOXIDANT INFLAMMATION MODULATORS: NOVEL DERIVATIVES OF OLEANOLIC ACID” (priority 2008, published 2012)
In brackets after ≈: the same amount, converted by molar mass.

Experiment: Aqueous solubility determination (Millipore Multiscreen solubility filter plate, UV/vis)
Assay type: physicochemical
Details: kinetic from dmso stock; Universal Aqueous Buffer pH 7.4, 90 minutes at room temperature
Procedure: Aqueous Solubility Determination. The following procedure was used to obtain the aqueous solubility results summarized in Example 4. Step 1. Determination of optimal UV/vis wavelengths and generation of standard curves for a compound of interest: • (1) For eight standard calibration curves (one plate), prepare 34 mL of 50:50 (v:v) universal buffer:acetonitrile in a 50 mL tube. • (2) Using a multichannel pipet, dispense (in μL) the buffer:acetonitrile in a deep well plate as follows:
• (3) Using a multichannel pipet, dispense DMSO into the same plate as follows:
• (4) Add 10 mM compound in DMSO into the plates as follows:
• (5) Mix columns 1 and 2 by pipetting each up and down 10 times. Mix columns 3 and 4 by pipetting up and down 10 times. Serially dilute as follows (pipet up and down 10 times after each transfer):
• (6) Cover plate with lid and shake (200-300 rpm) at room temperature for 20 minutes. • (7) Mix all wells by pipetting up and down 10 times. • (8) Transfer 120 μL from each well to a UV transparent plate. Cover and shake for 3-5 minutes. Remove any bubbles in the wells using a pipet. • (9) Read from 220 nm to 500 nm at 10 nm increments on a spectrophotometer (e.g., SpectraMax®).
Step 2. Compound Solubility Testing Procedures using the Millipore™ Multiscreen® Solubility Filter Plate. […]
Solubility Protocol: • (a) Add 285 μL of Universal Aqueous Buffer to desired wells of the Millipore™ Multiscreen® Solubility filter plate. • (b) Add 15 μL of 10 mM compound in DMSO to the appropriate wells. […] Remove any bubbles with a pipet. • (i) Measure the absorbance of each well in the plate on the spectrophotometer (UV/vis) at the desired wavelength. For compounds in a plate with different absorbance peaks, set the spectrophotometer to read a spectrum (e.g., from 220 nm to 460 nm). • (j) Identify concentration using measured absorbance for each compound and the predetermined standard curve (see Step 1).

solubility at 90 min [µM]	SMILES
13.6 (≈ 6.89 µg/mL)	COC(=O)[C@]12CCC(C)(C)C[C@H]1[C@H]1C(=O)C[C@@H]3[C@@]4(C)C=C(C#N)C(=O)C(C)(C)[C@@H]4CC[C@@]3(C)[C@]1(C)CC2 [Compound 63219]
0.06 (≈ 0.0344 µg/mL)	CC1(C)CC[C@]2(C(=O)NCC(F)(F)F)CC[C@]3(C)[C@H](C(=O)C=C4[C@@]5(C)C=C(C#N)C(=O)C(C)(C)[C@@H]5CC[C@]43C)[C@@H]2C1 [Compound 63102, reference compound]
164 (≈ 75.7 µg/mL)	CC1(C)CC[C@]2(N)CC[C@]3(C)[C@H](C(=O)C=C4[C@@]5(C)C=C(C#N)C(=O)C(C)(C)[C@@H]5CC[C@]43C)[C@@H]2C1 [Compound 63198]
